# Measured values: PMC6907063, “The Herb-Drug Pharmacokinetic Interaction of Fluoxetine and Its Metabolite Norfluoxetine with a Traditional Chinese Medicine in Rats by LC-MS/MS” (Evidence-based Complementary and Alternative Medicine : eCAM, 2019)
# Assays:
# [1] = continuous administration of FLU for 2 weeks; cited from earlier work
# [2] = Pharmacokinetics of fluoxetine and its metabolite norfluoxetine in rat plasma after oral fluoxetine with or without CSGS for 14 d (LC-MS/MS)
# [3] = in vivo; conditions: Sprague-Dawley, rat, po, 1.8 mg/kg
# [4] = Stability of the analytes in QC samples (LC-MS/MS method validation); assay type: physicochemical, rat; conditions: n = 5
# Experimental: Quality control (QC) samples were prepared in the same way as mentioned above. […] All stability studies were evaluated at low, medium, and high QC levels with five determinations for each test. The relative standard deviations (RSDs) were used to evaluate the stability of the analytes. The RSD was expected to be within ±15.0%.
# [5] = rat, in vivo, po, 1.8 mg/kg
structure (smiles),measurement,setting,value
COc1ccc2[nH]c([S+]([O-])Cc3ncc(C)c(OC)c3C)nc2c1 (stereo not drawn) [omeprazole],increase of AUC,[1],7.1 times
CNCCC(Oc1ccc(C(F)(F)F)cc1)c1ccccc1 (stereo not drawn) [fluoxetine],AUCs (0–∞) of FLU,[2]; FLU group (fluoxetine 1.8 mg/kg·d for 14 d),12.20 ± 2.67 μg/L∗h
same,AUCs (0–∞) of FLU,[2]; multiple dose group A (CSGS […]·d + fluoxetine 1.8 mg/kg·d),11.20 ± 3.86 μg/L∗h
same,AUCs (0–∞) of FLU,[2]; multiple dose group B (CSGS 11.8 g/kg·d + fluoxetine 1.8 mg/kg·d),14.54 ± 3.22 μg/L∗h
same,AUCs (0–∞) of FLU,[2]; multiple dose group C (CSGS 23.6 g/kg·d + fluoxetine 1.8 mg/kg·d),22.01 ± 4.49 μg/L∗h
same,Tmax,[3],45 min
same,Cmax,[3]; C max of fluoxetine,2.19 ng/mL
same,CL/F,[3]; CLz/F of fluoxetine,2490 mL/min/kg
same,Cmax,[3]; Cmax of fluoxetine,2.19 ng/mL
same,MRT last,[3]; MRT (0–t) of fluoxetine,7.67 ± 1.02 h
same,half-life,[3]; t1/2z of fluoxetine,537 ± 450 min
same,"Measured C, at room temperature for 4 h",[4]; QC concentration 1 ng/ml,1.010 ± 0.028 ng/mL
same,"Measured C, freeze-thaw three cycles",[4]; QC concentration 1 ng/ml,0.997 ± 0.012 ng/mL
same,"Measured C, −20°C for 4 weeks",[4]; QC concentration 1 ng/ml,0.987 ± 0.018 ng/mL
same,"Measured C, at room temperature for 4 h",[4]; QC concentration 4 ng/ml,3.965 ± 0.210 ng/mL
same,"Measured C, freeze-thaw three cycles",[4]; QC concentration 4 ng/ml,3.991 ± 0.212 ng/mL
same,"Measured C, −20°C for 4 weeks",[4]; QC concentration 4 ng/ml,4.012 ± 0.231 ng/mL
same,"Measured C, at room temperature for 4 h",[4]; QC concentration 16 ng/ml,15.832 ± 0.536 ng/mL
same,"Measured C, freeze-thaw three cycles",[4]; QC concentration 16 ng/ml,15.872 ± 0.845 ng/mL
same,"Measured C, −20°C for 4 weeks",[4]; QC concentration 16 ng/ml,15.872 ± 0.654 ng/mL
same,AUC (0–∞) of fluoxetine,[5],12.20 ± 2.67 ug/L∗h
COc1ccc2c(c1)[C@]13CCCC[C@@H]1[C@H](C2)N(C)CC3 [dextromethorphan],increase of AUC,[1],27 times
NCCC(Oc1ccc(C(F)(F)F)cc1)c1ccccc1 (stereo not drawn) [norfluoxetine],"Measured C, at room temperature for 4 h",[4]; QC concentration 2 ng/ml,1.943 ± 0.054 ng/mL
same,"Measured C, freeze-thaw three cycles",[4]; QC concentration 2 ng/ml,1.879 ± 0.045 ng/mL
same,"Measured C, −20°C for 4 weeks",[4]; QC concentration 2 ng/ml,1.873 ± 0.044 ng/mL
same,"Measured C, at room temperature for 4 h",[4]; QC concentration 4 ng/ml,3.934 ± 0.186 ng/mL
same,"Measured C, freeze-thaw three cycles",[4]; QC concentration 4 ng/ml,4.012 ± 0.231 ng/mL
same,"Measured C, −20°C for 4 weeks",[4]; QC concentration 4 ng/ml,3.891 ± 0.156 ng/mL
same,"Measured C, at room temperature for 4 h",[4]; QC concentration 8 ng/ml,7.897 ± 0.234 ng/mL
same,"Measured C, freeze-thaw three cycles",[4]; QC concentration 8 ng/ml,7.987 ± 0.341 ng/mL
same,"Measured C, −20°C for 4 weeks",[4]; QC concentration 8 ng/ml,7.871 ± 0.246 ng/mL
CC[C@H](C)C(=O)O[C@H]1C[C@@H](C)C=C2C=C[C@H](C)[C@H](CC[C@@H]3C[C@@H](O)CC(=O)O3)[C@H]21 [lovastatin],effect on AUC,[1],did not affect
Cc1ncc2n1-c1ccc(Cl)cc1C(c1ccccc1F)=NC2 [midazolam],effect on AUC,[1],did not affect
